Test results reported in PMC9502403, “Saquayamycin B1 Suppresses Proliferation, Invasion, and Migration by Inhibiting PI3K/AKT Signaling Pathway in Human Colorectal Cancer Cells” (Marine Drugs, 2022).

Legend:
HT-29 cells = assay: MTT cytotoxicity assay, HT-29; format: cell-based; details: Homo sapiens, 48 h, mean ± SD
Experimental: (§1) Human CRC cell lines SW480 (BeNa Culture Collection, Xinyang, China), SW620 (Procell Life Science & Technology Co., Ltd., Wuhan, China), and HT-29 (Zhong Qiao Xin Zhou Biotechnology Co., Ltd., Shanghai, China) were cultured in RPMI 1640 Medium (Livning Biotechnology Co., Ltd., Beijing, China), LoVo cells (Zhong Qiao Xin Zhou Biotechnology Co., Ltd., Shanghai, China) were cultured in DMEM/F12 (Livning Biotechnology Co., Ltd., Beijing, China), and normal human liver cell line QSG-7701 (Beyotime Institute of Biotechnology, Shanghai, China) was cultured in DMEM/high glucose (Livning Biotechnology Co., Ltd., Beijing, China) containing 10% fetal bovine serum (FBS) (Gibco Life Technologies, San Jose, CA, USA). The cells were cultured in a constant temperature incubator at 37 °C, 5% CO2.
(§2) The cytotoxicity of Mor B, Saq B1, Saq B, and Lan N on CRC and the normal human liver cells was detected by MTT (3-(4,5-dimethylthiazol)-2,5-diphenyltetrazolium bromide) assay (Sigma-Aldrich Corp., St. Louis, MO, USA). Cells were evenly distributed in 96-well plates overnight and then treated with Mor B, Saq B1, Saq B, and Lan N at different concentrations for 48 h. The negative control group was treated with the same concentration of DMSO. After treatment, 10 μL of the 5 mg/mL MTT solution was added to each well in the incubator for 4 h. Then, the MTT solution was removed and 150 μL DMSO was added into each hole to dissolve the purple crystal. The absorbance of each well was read at 570 nm with a microplate reader, and the IC50 values were calculated using the software. Each sample was measured three times independently.

SW620 cells [1] = assay: MTT cytotoxicity assay, SW620; format: cell-based; details: Homo sapiens, SW-620, 48 h, mean ± SD
Experimental: as §1, §2

LoVo cells = assay: MTT cytotoxicity assay, LoVo; format: cell-based; details: Homo sapiens, 48 h, mean ± SD
Experimental: as §1, §2

QSG-7701 cells = assay: MTT cytotoxicity assay, QSG-7701 normal liver cells; format: cell-based; details: QSG7701, 48 h, normal human liver cells, mean ± SD
Experimental: as §1, §2

SW480 cells [2] = assay: MTT cytotoxicity assay, SW480; format: cell-based; details: Homo sapiens, 48 h, mean ± SD
Experimental: as §1, §2

SW480 cells [3] = assay: Transwell migration and invasion assay; format: cell-based, human
Experimental: The transwell assay is used to test the ability of cells to invade and metastasize. In the invasion assay, we placed transwell chambers in a 24-well plate, and cells were suspended in 200 μL serum-free medium at the density of 1 × 10^5 cells/mL. Then, cells were added to an upper chamber containing Matrigel, while 700 μL of the medium containing 20% FBS as a chemo-attractant was added to the lower chamber. The cells were treated with various doses of Saq B1 and incubated with 5% CO2 at 37 °C. Thereafter, all media were discarded, and the cells in the lower chamber were fixed in 4% paraformaldehyde for 20 min and placed in 0.5% crystal violet dye for 20 min. After washing the cells with PBS three times, five regions were selected randomly under the microscope, pictures were taken, and the number of transmembrane cells was counted. The migration assay followed the same procedure as the invasion assay but without Matrigel. Each sample was evaluated independently three times.

[4] = system: E-cadherin, N-cadherin, and vimentin; assay: Western blot of EMT markers; format: cell-based, human; details: SW480 and SW620 cells, 0–0.3 μmol/L
Experimental: (§3) Western blotting was used to reveal changes in the expression of specific proteins after Saq B1 treatment. The cells treated with varying doses of Saq B1 were lysed with RIPA buffer (Beyotime Biotech, Shanghai, China) to obtain total protein, which was quantified using a BCA kit. The proteins with different molecular weights were separated by SDS-PAGE electrophoresis. The protein was transferred to a PVDF membrane and sealed with 5% skim milk for 1 h. After washing with TBS-T buffer, the respective primary antibodies were added to the membrane and incubated at 4 °C overnight. Next, the PVDF membrane was washed with TBS-T buffer three times and incubated with antimouse IgG or antirabbit IgG secondary antibody (CST, Inc., Beverly, MA, USA) for 1 h at room temperature. Proteins on the membranes were visualized using the enhanced chemiluminescence detection kit (ECL®, Amersham Biosciences, Little Chalfont, UK).

SW480 cells [5] = assay: Colony formation assay; format: cell-based, human; details: SW480, with increasing concentration, 14 days
From the text: The cell colony formation assay is an important technique for detecting cell proliferation, invasiveness, and drug sensitivity. After digestion of trypsin in the logarithmic growth phase, the cells were inoculated on 6-well plates at a density of 700 cells/well. The medium was refreshed every 3 days and treatment continued for 14 days. Finally, the colonies were fixed with 4% paraformaldehyde and stained with crystal violet. Colonies with >50 cells were counted and photographed.

SW620 cells [6] = assay: Annexin V-FITC/PI flow cytometry of apoptosis, SW620; format: cell-based, human
From the text: (§4) Annexin V-FITC and Propidium Iodide (PI) apoptosis-detection kits were used to determine the specific proportion of apoptotic cells. Annexin V-FITC is used to detect phosphatidylserine, which moves from the inside of the membrane to the surface of the cell membrane during apoptosis, producing green fluorescence. Late apoptotic cells whose cell membrane integrity is destroyed can be stained with PI, producing red fluorescence.
(§5) An Annexin V-FITC apoptosis detection kit was used to detect cell apoptosis by flow cytometry after staining. The cells were placed in 6-well plates and digested by trypsin (Solarbio, Beijing, China) after Saq B1 treatment. Then, the cells were washed with PBS and centrifuged for 5 min, and the supernatant was discarded. Annexin V-FITC binding buffer was added to gently suspend the cells. Annexin V-FITC and PI were successively added and slowly mixed. Apoptosis was immediately assessed by flow cytometry (Becton, Dickinson and Company, San Jose, CA, USA). Each sample was measured three times.

SW480 cells [7] = assay: Wound-healing assay; format: cell-based, human; details: SW480, with increasing dose, 48 h
Experimental: To determine the migratory ability of cells in vitro, we adopted the cell scratch test. Cells were placed in a 6-well plate at a density of 5 × 10^4 cells per well. When the cells had adhered to 90% of each well, we made equal-width scratches at the same position in each hole with sterile micropipette tips. Each well was washed three times with PBS to remove suspended cells. The cells in the well were treated with different concentrations of Saq B1. The wound-healing rate (%) = (1 − (the width of the assay group/the width of the control group)) × 100% was calculated according to the width of the scratches in each group to evaluate the migratory ability of the cells. Each sample was measured three times.

PI3K/AKT pathway = assay: Western blot of PI3K, AKT, p-AKT; format: cell-based, human; details: SW480 and SW620 cells, 0.1 μM, 0.2 μM, and 0.3 μM
Experimental: as §3

CRC cells = assay: MTT cytotoxicity assay, CRC cells (range over lines); format: cell-based; details: Homo sapiens, range over SW480, SW620, LoVo, HT-29
Experimental: as §1
as §2, with “The negative control group was treated with the same concentration of DMSO. After treatment, 10 μL of the 5 mg/mL MTT solution was added to each well in the incubator for 4 h. Then, the MTT solution was removed and 150 μL DMSO was added into each hole to dissolve the purple crystal.” left out

SW480 cells [8] = assay: Annexin V-FITC/PI flow cytometry of apoptosis, SW480; format: cell-based, human
From the text: as §4, §5

Bax/Bcl-2 = assay: Western blot of Bax and Bcl-2; format: cell-based, human; details: SW480 and SW620 cells
Experimental: as §3

SMILES	IC50 (HT-29 cells) [nM]	IC50 (SW620 cells [1]) [nM]	IC50 (LoVo cells) [nM]	IC50 (QSG-7701 cells) [nM]	IC50 (SW480 cells [2]) [nM]	also measured
COc1cccc2c1C(=O)c1c(O)c3c(c(O)c1C2=O)C[C@@](O)(C(=O)CO)C[C@@H]3O[C@H]1C[C@H](N)[C@H](O)[C@H](C)O1 [Doxorubicin, reference compound]	1020 ± 100	1060 ± 110	830 ± 120	1330 ± 30	910 ± 80	–
Cc1cc(O)c2c3c(cc(O)c2c1)C(=O)c1c(ccc([C@H]2C[C@H]4O[C@H]5CC(=O)[C@H](C)O[C@H]5O[C@@H]4[C@@H](C)O2)c1O)C3=O [Landomycin N]	> 20000	> 20000	> 20000	> 20000	> 20000	–
C[C@@H]1O[C@H]2O[C@@H]3[C@@H](C)O[C@@H](c4ccc5c(c4O)C(=O)c4ccc6c(c4C5=O)C(=O)C[C@](C)(O)C6)C[C@H]3O[C@H]2CC1=O [Moromycin B]	820 ± 40	340 ± 50	780 ± 20	1260 ± 150	450 ± 60	–
C[C@@H]1O[C@H]2O[C@@H]3[C@@H](C)O[C@@H](c4ccc5c(c4O)C(=O)C4=C(C5=O)[C@@]5(O)C(=O)C[C@](C)(O)C[C@@]5(O)C=C4)C[C@H]3O[C@H]2CC1=O [Saquayamycin B1]	840 ± 50	260 ± 30	630 ± 70	1570 ± 120	180 ± 10	cellular migration and invasion (SW480 cells [3]): dose-dependent inhibition; expression of epithelial adhesion protein E-cadherin [4]: increased; expression of mesenchymal protein N-cadherin [4]: decreased; expression of mesenchymal protein vimentin [4]: decreased; size and number of cell clones (SW480 cells [5]): declined; apoptosis rate (SW620 cells [6]; SW620, Saq B1 0.1 μM): 8.11%; apoptosis rate (SW620 cells [6]; SW620, Saq B1 0.2 μM): 12.67%; apoptosis rate (SW620 cells [6]; SW620, Saq B1 0.3 μM): 30.69%; wound-healing rate of cells (SW480 cells [7]): decreased gradually; protein expression level of AKT (PI3K/AKT pathway): basically unchanged; protein expression level of PI3K (PI3K/AKT pathway): decreased; protein expression level of p-AKT (PI3K/AKT pathway): decreased; IC50 (CRC cells): 180 to 840 nM; apoptosis rate (SW480 cells [8]; SW480, Saq B1 0.1 μM): 24.31%; apoptosis rate (SW480 cells [8]; SW480, Saq B1 0.2 μM): 30.75%; apoptosis rate (SW480 cells [8]; SW480, Saq B1 0.3 μM): 40.12%; expression of Bax/Bcl-2 (Bax/Bcl-2): increased
C[C@@H]1O[C@@H](O[C@H]2CC[C@H](O[C@@]3(C)CC(=O)[C@]4(O)C5=C(C=C[C@]4(O)C3)C(=O)c3c(ccc([C@H]4C[C@H]6O[C@H]7CC(=O)[C@H](C)O[C@H]7O[C@@H]6[C@@H](C)O4)c3O)C5=O)O[C@H]2C)C=CC1=O [Saquayamycin B]	890 ± 20	420 ± 20	750 ± 30	1380 ± 140	320 ± 30	–
